Measured values taken from patent US20200181132A1, “QUINOXALINE AND PYRIDOPYRAZINE DERIVATIVES AS PI3K-BETA INHIBITORS” (JANSSEN PHARMACEUTICA NV, priority 2017, published 2020).
Read-outs that look alike come from different tables or passages of the source.

Tests used:
PIK3Cα_h = target: T1, PIK3Cα_h (Homo sapiens, UniProt P42336); test: Enzyme binding assay (KINOMEscan), PIK3Cα; settings: DiscoveRx
T1 construct: purchased DiscoveRx Corporation
Description: (§1) Enzyme Binding Assays (KINOMEscan®)
(§2) Kinase enzyme binding affinities of compounds disclosed herein were determined using the KINOMEscan technology performed by DiscoveRx Corporation, San Diego, Calif., USA (www.kinomescan.com). Table A reports the obtained Kd values (nM), with the Kd being the inhibitor binding constant: […]

PIK3Cβ_h = target: T2, PIK3Cβ_h (Homo sapiens, UniProt P42338); test: Enzyme binding assay (KINOMEscan), PIK3Cβ; settings: DiscoveRx
T2 construct: purchased DiscoveRx Corporation
T2 sequence (P42338 whole entry): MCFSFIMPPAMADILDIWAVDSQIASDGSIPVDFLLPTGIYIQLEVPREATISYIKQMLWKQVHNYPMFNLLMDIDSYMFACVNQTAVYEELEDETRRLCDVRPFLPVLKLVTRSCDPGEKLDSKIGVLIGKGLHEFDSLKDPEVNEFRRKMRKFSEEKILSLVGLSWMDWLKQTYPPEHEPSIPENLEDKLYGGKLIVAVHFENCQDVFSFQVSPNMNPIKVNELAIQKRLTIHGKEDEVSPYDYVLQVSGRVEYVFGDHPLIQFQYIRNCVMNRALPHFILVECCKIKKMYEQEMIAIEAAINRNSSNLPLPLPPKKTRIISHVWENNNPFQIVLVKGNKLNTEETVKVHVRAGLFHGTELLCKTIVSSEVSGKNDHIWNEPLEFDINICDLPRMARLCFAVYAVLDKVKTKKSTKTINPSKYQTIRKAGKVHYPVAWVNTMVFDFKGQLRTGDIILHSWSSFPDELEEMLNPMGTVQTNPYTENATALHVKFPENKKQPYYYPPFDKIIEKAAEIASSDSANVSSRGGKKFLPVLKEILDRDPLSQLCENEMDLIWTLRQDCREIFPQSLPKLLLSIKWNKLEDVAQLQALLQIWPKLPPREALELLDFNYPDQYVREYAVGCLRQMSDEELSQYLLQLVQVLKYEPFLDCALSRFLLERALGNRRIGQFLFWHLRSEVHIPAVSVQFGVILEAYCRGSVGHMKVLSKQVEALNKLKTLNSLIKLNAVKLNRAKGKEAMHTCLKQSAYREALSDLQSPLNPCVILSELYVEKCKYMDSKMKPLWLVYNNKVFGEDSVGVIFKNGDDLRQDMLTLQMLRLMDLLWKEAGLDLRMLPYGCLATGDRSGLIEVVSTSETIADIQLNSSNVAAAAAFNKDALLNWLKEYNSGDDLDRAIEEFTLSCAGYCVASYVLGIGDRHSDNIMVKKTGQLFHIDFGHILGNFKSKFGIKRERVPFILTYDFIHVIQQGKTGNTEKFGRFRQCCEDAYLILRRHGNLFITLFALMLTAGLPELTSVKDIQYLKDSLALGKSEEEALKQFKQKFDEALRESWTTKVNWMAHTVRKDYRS
Description: as §1, §2

PIK3Cδ_h = target: T3, PIK3Cδ_h (Homo sapiens, UniProt O00329); test: Enzyme binding assay (KINOMEscan), PIK3Cδ; settings: DiscoveRx
T3 construct: purchased DiscoveRx Corporation
T3 sequence (O00329 1-1044): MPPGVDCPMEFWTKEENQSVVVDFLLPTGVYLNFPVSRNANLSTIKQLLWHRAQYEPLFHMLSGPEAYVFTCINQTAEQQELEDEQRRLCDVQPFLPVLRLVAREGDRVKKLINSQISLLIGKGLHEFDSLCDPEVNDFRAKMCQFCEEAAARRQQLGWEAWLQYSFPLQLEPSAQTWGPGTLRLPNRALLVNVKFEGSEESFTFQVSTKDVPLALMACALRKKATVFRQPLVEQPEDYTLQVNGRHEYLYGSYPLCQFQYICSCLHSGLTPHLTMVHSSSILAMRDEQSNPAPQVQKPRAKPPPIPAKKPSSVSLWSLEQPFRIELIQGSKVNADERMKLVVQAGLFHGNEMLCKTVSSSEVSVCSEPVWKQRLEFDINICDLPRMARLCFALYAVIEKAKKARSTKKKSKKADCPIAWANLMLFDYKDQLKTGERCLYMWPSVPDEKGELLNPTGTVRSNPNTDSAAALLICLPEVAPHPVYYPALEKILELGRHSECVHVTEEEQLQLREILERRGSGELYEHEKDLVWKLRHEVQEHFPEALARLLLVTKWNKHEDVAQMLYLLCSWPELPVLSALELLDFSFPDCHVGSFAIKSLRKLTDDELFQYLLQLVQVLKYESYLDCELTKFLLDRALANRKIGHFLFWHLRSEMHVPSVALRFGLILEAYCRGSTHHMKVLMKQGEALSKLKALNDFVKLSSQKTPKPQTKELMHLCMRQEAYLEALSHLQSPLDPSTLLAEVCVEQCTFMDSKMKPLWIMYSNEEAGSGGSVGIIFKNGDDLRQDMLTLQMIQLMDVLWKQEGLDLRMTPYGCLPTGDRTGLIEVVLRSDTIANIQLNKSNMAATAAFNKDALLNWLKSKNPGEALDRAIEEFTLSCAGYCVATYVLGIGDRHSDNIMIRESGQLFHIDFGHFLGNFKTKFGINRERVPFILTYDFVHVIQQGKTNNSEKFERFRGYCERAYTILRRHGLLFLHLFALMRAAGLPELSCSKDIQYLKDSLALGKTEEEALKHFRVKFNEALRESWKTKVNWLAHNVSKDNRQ
Description: as §1, §2

PIK3Cγ_h = target: T4, PIK3Cγ_h (Homo sapiens, UniProt P48736); test: Enzyme binding assay (KINOMEscan), PIK3Cγ; settings: DiscoveRx
T4 construct: purchased DiscoveRx Corporation
T4 sequence (P48736 whole entry): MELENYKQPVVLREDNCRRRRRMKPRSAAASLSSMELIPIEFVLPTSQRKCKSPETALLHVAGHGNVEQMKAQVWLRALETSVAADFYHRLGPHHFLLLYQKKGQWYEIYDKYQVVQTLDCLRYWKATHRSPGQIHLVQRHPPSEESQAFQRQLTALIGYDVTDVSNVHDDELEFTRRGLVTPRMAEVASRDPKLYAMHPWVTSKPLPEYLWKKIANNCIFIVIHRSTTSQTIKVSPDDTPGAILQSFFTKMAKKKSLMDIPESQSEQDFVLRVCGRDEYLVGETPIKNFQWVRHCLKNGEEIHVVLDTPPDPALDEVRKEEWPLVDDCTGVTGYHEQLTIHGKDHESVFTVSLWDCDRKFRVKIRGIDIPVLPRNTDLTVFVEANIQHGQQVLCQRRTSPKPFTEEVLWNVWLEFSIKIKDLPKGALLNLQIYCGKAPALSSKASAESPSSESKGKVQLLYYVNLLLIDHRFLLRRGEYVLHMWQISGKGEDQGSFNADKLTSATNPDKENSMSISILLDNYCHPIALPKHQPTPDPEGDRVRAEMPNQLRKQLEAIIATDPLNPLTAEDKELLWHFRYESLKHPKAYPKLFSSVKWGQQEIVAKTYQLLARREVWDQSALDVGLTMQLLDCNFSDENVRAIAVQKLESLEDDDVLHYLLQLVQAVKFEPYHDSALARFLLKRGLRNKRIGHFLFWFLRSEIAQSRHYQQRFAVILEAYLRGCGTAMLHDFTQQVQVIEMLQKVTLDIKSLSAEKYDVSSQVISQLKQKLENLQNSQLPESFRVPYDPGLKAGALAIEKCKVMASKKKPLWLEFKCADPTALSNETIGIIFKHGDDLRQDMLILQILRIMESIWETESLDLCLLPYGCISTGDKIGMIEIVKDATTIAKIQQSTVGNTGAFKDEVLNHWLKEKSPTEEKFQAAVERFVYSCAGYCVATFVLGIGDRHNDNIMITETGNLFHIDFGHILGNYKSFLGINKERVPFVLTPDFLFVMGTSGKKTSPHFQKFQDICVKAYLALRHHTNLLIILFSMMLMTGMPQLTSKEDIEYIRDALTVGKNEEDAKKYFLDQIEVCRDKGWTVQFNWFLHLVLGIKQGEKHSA
Description: as §1, §2

MTOR_h = target: T5, MTOR_h (Homo sapiens, UniProt P42345); test: Enzyme binding assay (KINOMEscan), MTOR; settings: DiscoveRx
T5 construct: purchased DiscoveRx Corporation
Description: as §1, §2

[1] = tested on: phosphorylation of Akt at Ser473 in PC-3 cells; test: Cellular assay: phospho-Akt (Ser473) MSD ELISA in PC-3 cells; type: cell-based; settings: 60 min incubation with compound, read-out: IC50 pAkt_S473
Description: (§3) Cellular activity of PI3Kβ inhibitors was determined by quantifying the phosphorylation of Akt in PC-3 cells. Akt phosphorylated at Ser473 and Thr308 were measured using an enzyme-linked immunosorbent assay (ELISA; Meso Scale Discovery (MSD), Gaithersburg, Md.) and specific primary antibodies from MSD.
(§4) On day 1, PC3 cells (ATCC # […]) were seeded into PerkinElmer MW96 plates at 25.000 cells per well, in 75 μl complete culture medium (DMEM high glucose, AQmedia™, D0819, Sigma-Aldrich) containing 10% heat inactivated FCS and incubated at 37° C., 5% CO2 during 24 hours. On day 2, compound or DMSO (0.3%) was added and cells were further incubated for 60 min at 37° C., 5% CO2 in a total volume of 100 μl of medium.
(§5) The phosphoprotein assay was executed according to vendor instructions in the Phospho-Akt (Ser473) Assay Whole Cell Lysate Kit (MSD # K15100D-3) and the Phospho-Akt (Thr308) Assay Whole Cell Lysate Kit (MSD # K151DYD-3) using the lysis, blocking and wash buffer provided.
(§6) Briefly, at the end of the cell treatment period, media were removed by aspiration and adherent cells were lysed in 50 μl ice-cold lysis buffer. MSD plates are supplied pre-coated with capture antibodies for Phospho-Akt (Ser473 and Thr308). After blocking, lysates from tissue culture plates were added and plates were washed. Then, a solution containing the detection antibody (anti-total Akt conjugated with an electrochemiluminescent compound-MSD Sulfo-tag label) was added. The signals were detected using an MSD SECTOR Imager 6000 and are proportional to the phospho-Akt titres.
(§7) Data were processed. The percentage of inhibition was plotted against the log concentration of test compounds, and the sigmoidal log concentration-effect curve of best fit was calculated by nonlinear regression analysis. From these concentration-response curves, the IC50 values were calculated. Five concentrations were used for curve fitting.

[2] = tested on: phosphorylation of Akt at Thr308 in PC-3 cells; test: Cellular assay: phospho-Akt (Thr308) MSD ELISA in PC-3 cells; type: cell-based; settings: 60 min incubation with compound, read-out: IC50 pAkt_Thr308
Description: as §3, §4, §5, §6, §7

T1 sequence (P42336 whole entry): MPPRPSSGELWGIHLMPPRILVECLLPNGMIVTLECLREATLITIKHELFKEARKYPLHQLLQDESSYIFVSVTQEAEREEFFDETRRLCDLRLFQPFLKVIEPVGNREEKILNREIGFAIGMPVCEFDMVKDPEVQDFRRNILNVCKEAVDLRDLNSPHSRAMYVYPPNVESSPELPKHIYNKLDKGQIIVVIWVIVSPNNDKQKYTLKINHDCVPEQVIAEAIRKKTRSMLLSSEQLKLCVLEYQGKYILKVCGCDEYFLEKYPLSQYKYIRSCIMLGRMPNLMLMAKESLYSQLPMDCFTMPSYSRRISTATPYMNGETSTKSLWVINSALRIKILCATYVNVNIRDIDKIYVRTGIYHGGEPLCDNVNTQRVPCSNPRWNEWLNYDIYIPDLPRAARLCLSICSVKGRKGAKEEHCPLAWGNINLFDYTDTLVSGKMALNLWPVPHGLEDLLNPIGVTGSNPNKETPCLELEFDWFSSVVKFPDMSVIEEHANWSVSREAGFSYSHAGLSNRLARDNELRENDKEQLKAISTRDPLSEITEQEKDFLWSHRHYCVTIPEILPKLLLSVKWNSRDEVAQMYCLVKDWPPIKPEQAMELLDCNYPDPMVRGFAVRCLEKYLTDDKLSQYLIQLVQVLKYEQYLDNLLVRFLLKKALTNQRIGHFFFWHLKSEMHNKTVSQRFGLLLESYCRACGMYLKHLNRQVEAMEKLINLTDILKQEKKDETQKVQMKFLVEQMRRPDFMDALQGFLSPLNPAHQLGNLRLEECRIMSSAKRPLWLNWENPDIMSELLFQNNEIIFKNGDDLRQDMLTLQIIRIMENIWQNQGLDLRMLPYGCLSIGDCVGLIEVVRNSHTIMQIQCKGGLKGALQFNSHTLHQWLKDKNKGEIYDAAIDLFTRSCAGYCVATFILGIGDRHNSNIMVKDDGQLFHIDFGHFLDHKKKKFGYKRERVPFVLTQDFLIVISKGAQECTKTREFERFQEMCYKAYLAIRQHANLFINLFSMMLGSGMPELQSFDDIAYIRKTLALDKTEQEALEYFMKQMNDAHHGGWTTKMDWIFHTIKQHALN

Compound	Kd (PIK3Cα_h) [nM]	Kd (PIK3Cβ_h) [nM]	Kd (PIK3Cδ_h) [nM]	Kd (PIK3Cγ_h) [nM]	Kd (MTOR_h) [nM]	IC50 ([1]; Homo sapiens, PC-3, 1 h) [nM]	IC50 ([2]; Homo sapiens, PC-3, 1 h) [nM]	melting point [°C]	IC50 [1] [nM]	IC50 [2] [nM]
Cc1cc(N2CCCC2c2cc(C(=O)N(C)C)cc3ncc(N4CCOCC4)nc23)nc(C)n1 (stereo not drawn) [Compound 3]	> 30200	2040	25100	> 30200	> 30200	> 513	> 513	186		
CNCCOCCN(C)C(=O)c1cc(C2CCCN2c2ccnc(Cl)c2)c2nc(N3CCOCC3)cnc2c1 (stereo not drawn) [Compound 49]	> 30200	28	2460	> 30200	> 30200	> 513	> 513			
O=C(c1cc(C2CCCN2c2cncc(F)c2)c2nc(N3CCOCC3)cnc2c1)N1CC2(C1)CS(=O)(=O)C2 (stereo not drawn) [Compound 44]	575	2	240	4070	31600	49	30	130		
Cc1cc(N2CCCC2c2cc(C(=O)N(C)C)cc3ncc(N4CCOCC4)nc23)cc(C)n1 (stereo not drawn) [Compound 2]	> 30200	162	5890	20900	> 30200	> 513	> 513	138		
CN(C)C(=O)c1cc(C2CCCN2c2cc(Cl)ncn2)c2nc(N3CCOCC3)cnc2c1 (stereo not drawn) [Compound 1]	16600	42	1410	> 30200	> 30200	> 513	> 513	80		
COc1ncc(NC(C)c2cc(C(=O)N(C)C)cc3ncc(N4CCOCC4)nc23)cc1C(F)(F)F (stereo not drawn) [Compound 24]	> 30200	589	8320	> 30200	> 30200	> 513	> 513	80		
CN(C)CCNC(=O)c1cc(C2CCCN2c2cncc(F)c2)c2nc(N3CCOCC3)cnc2c1 (single isomer, unassigned) [Compound 40]		0.2	120	1050	> 30200	2	2			
Cc1cc(C)nc(N2CCCC2c2cc(C(=O)N(C)C)cc3ncc(N4CCOCC4)nc23)n1 (stereo not drawn) [Compound 5]	5370	22	832	26900	> 30200	> 513	417	100		
COc1ncc(F)cc1NC(C)c1cc(C(=O)N(C)C)cc2ncc(N3CCOCC3)nc12 (stereo not drawn) [Compound 26]	5010	15	661	> 30200	> 30200	> 513	191	80		
CN(C)CCNC(=O)c1cc(C2CCCN2c2cncc(F)c2)c2nc(N3CCOCC3)cnc2c1 (stereo not drawn) [Compound 36]	1700	0.1	295	3390	> 30200	5	4	206		
CN(C)CCNC(=O)c1cc(C2CCCN2c2cc(Cl)cc(Cl)n2)c2nc(N3CCOCC3)cnc2c1 (stereo not drawn) [Compound 45]	479	0.3	32	457	12300	7	4			
CN(C)CCNC(=O)c1cc(C2CCCN2c2ccnc(F)c2)c2nc(N3CCOCC3)cnc2c1 (single isomer, unassigned) [Compound 39]	19100	1070	31600	> 30200	19500				> 513	> 513
CC(Nc1cncc(Cl)n1)c1cc(C(=O)N(C)C)cc2ncc(N3CCOCC3)nc12 (stereo not drawn) [Compound 25]	16200	21	1320	28800	> 30200	> 513	468	225		
CN(C)CCNC(=O)c1cc(C2CCCN2c2ccnc(Cl)c2)c2nc(N3CCOCC3)cnc2c1 (stereo not drawn) [Compound 46]	13500	2	550	19500	> 30200	102	66			
CN(C)CCNC(=O)c1cc(C2CCCN2c2cncc(F)n2)c2nc(N3CCOCC3)cnc2c1 (stereo not drawn) [Compound 52]						> 513	> 513			
CN(C)CCNC(=O)c1cc(C2CCCN2c2cncc(Cl)n2)c2nc(N3CCOCC3)cnc2c1 (stereo not drawn) [Compound 50]	1660	0.9	162	3310	> 30200	19	12			
O=C(NCCO)c1cc(NCc2cncc(F)c2)c2nc(N3CCOCC3)cnc2c1 [Compound 29]						> 513	> 513	198		
CN(C)CCNC(=O)c1cc(C2CCCN2c2cncc(Br)n2)c2nc(N3CCOCC3)cnc2c1 (stereo not drawn) [Compound 51]	9120	20	3470	> 30200	> 30200	> 513	> 513			
O=C(NCCO)c1cc(C2CCCN2c2ccnc(Cl)c2)c2nc(N3CCOCC3)cnc2c1 (stereo not drawn) [Compound 47]	17000	32	1950	20900	21900	> 513	> 513			
CN(C)C(=O)c1cc(C2CCCN2c2cncc(F)c2)c2nc(N3CCOCC3)cnc2c1 (stereo not drawn) [Compound 41]	209	0.8	52	1050	> 30200	~17	3			
CN(C)CCN(C)C(=O)c1cc(C2CCCN2c2cncc(F)c2)c2nc(N3CCOCC3)cnc2c1 (stereo not drawn) [Compound 42]	646	0.5	46	2630	> 30200	2	1			
COC(=O)c1cc(C(C)Nc2cncc(F)c2)c2nc(N3CCOCC3)cnc2c1 (stereo not drawn) [Compound 6]								240		
